Reference: PMC10385868 (Viruses, 2023)
≈ marks a conversion by molar mass, not a printed value.

biological target: VEEV nsP2 protease (Venezuelan equine encephalitis virus, UniProt P27282); assay: biochemical; conditions: Ki
Sequence (P27282 1003-1322 limits assumed): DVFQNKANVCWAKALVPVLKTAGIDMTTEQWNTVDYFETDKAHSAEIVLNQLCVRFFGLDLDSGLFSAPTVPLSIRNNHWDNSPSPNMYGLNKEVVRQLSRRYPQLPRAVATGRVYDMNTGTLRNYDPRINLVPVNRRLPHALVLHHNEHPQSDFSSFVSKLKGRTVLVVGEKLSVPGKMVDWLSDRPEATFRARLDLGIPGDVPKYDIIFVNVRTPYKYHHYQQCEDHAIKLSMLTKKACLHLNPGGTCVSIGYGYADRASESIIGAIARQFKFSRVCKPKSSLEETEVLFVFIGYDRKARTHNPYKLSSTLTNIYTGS

Compound	Ki
CCC(C)C(NC(=O)C1OC1C(=O)NC(CC(C)C)C(=O)NCCC(C)C)C(=O)N1CCCC1C(=O)OCc1ccccc1 (stereo not shown) [NCGC00484087-01]	5 µM
CC(C)CCNC(=O)[C@H](CC(C)C)NC(=O)[C@H]1O[C@@H]1C(=O)NCc1cccc(C#N)c1 [NCGC00488909-01]	3 µM

same assay, conditions: read-out: VEEV nsP2 PROTEASE k2/Ki

Compound	kinact/KI
CCC(C)C(NC(=O)C1OC1C(=O)NC(CC(C)C)C(=O)NCCC(C)C)C(=O)N1CCCC1C(=O)OCc1ccccc1 (stereo not shown) [NCGC00484087-01]	100 M⁻¹ s⁻¹
CC(C)CCNC(=O)[C@H](CC(C)C)NC(=O)[C@H]1O[C@@H]1C(=O)NCc1ccc(C#N)cc1 [NCGC00488904-01]	61 M⁻¹ s⁻¹
CC(C)CCNC(=O)[C@H](CC(C)C)NC(=O)[C@H]1O[C@@H]1C(=O)NCCCCO [NCGC00488906-01]	12 M⁻¹ s⁻¹
CC(C)CCNC(=O)[C@H](CC(C)C)NC(=O)[C@H]1O[C@@H]1C(=O)NCc1cccc(C#N)c1 [NCGC00488909-01]	862 M⁻¹ s⁻¹

tested on: VEEV-Trinidad; assay: microbe, parasite or virus in culture; format: cell-based; conditions: Venezuelan equine encephalitis virus, A549

Compound	EC50
CCC(C)C(NC(=O)C1OC1C(=O)NC(CC(C)C)C(=O)NCCC(C)C)C(=O)N1CCCC1C(=O)OCc1ccccc1 (stereo not shown) [NCGC00484087-01]	8 µM
CC(C)CCNC(=O)[C@H](CC(C)C)NC(=O)[C@H]1O[C@@H]1C(=O)NCc1ccc(C#N)cc1 [NCGC00488904-01]	4 µM
CC(C)CCNC(=O)[C@H](CC(C)C)NC(=O)[C@H]1O[C@@H]1C(=O)NCCCCO [NCGC00488906-01]	26 µM
CC(C)CCNC(=O)[C@H](CC(C)C)NC(=O)[C@H]1O[C@@H]1C(=O)NCc1cccc(C#N)c1 [NCGC00488909-01]	1.8 µM

same assay, conditions: Venezuelan equine encephalitis virus, A549, read-out: VEEV-Trinidad EC50

Compound	EC50
CCC(C)C(NC(=O)C1OC1C(=O)NC(CC(C)C)C(=O)NCCC(C)C)C(=O)N1CCCC1C(=O)OCc1ccccc1 (stereo not shown) [NCGC00484087-01]	7.9 µM
CC(C)CCNC(=O)[C@H](CC(C)C)NC(=O)[C@H]1O[C@@H]1C(=O)NCc1ccc(C#N)cc1 [NCGC00488904-01]	4.29 µM
CC(C)CCNC(=O)[C@H](CC(C)C)NC(=O)[C@H]1O[C@@H]1C(=O)NCCCCO [NCGC00488906-01]	26.4 µM
CC(C)CCNC(=O)[C@H](CC(C)C)NC(=O)[C@H]1O[C@@H]1C(=O)NCc1cccc(C#N)c1 [NCGC00488909-01]	1.76 µM

tested on: VEEV-TC83; assay: microbe, parasite or virus in culture; format: cell-based; conditions: Venezuelan equine encephalitis virus, HeLa, read-out: VEEV-TC83 EC50

Compound	EC50
CCC(C)C(NC(=O)C1OC1C(=O)NC(CC(C)C)C(=O)NCCC(C)C)C(=O)N1CCCC1C(=O)OCc1ccccc1 (stereo not shown) [NCGC00484087-01]	2.17 µM
CC(C)CCNC(=O)[C@H](CC(C)C)NC(=O)[C@H]1O[C@@H]1C(=O)NCc1ccc(C#N)cc1 [NCGC00488904-01]	4.09 µM
CC(C)CCNC(=O)[C@H](CC(C)C)NC(=O)[C@H]1O[C@@H]1C(=O)NCCCCO [NCGC00488906-01]	26.6 µM
CC(C)CCNC(=O)[C@H](CC(C)C)NC(=O)[C@H]1O[C@@H]1C(=O)NCc1cccc(C#N)c1 [NCGC00488909-01]	1.48 µM

tested on: CHIKV; assay: microbe, parasite or virus in culture; format: cell-based; conditions: Chikungunya virus, U2OS, read-out: CHIKV EC50

Compound	EC50
CC(C)CCNC(=O)[C@H](CC(C)C)NC(=O)[C@H]1O[C@@H]1C(=O)NCc1ccc(C#N)cc1 [NCGC00488904-01]	14.8 µM
CC(C)CCNC(=O)[C@H](CC(C)C)NC(=O)[C@H]1O[C@@H]1C(=O)NCCCCO [NCGC00488906-01]	18.5 µM
CC(C)CCNC(=O)[C@H](CC(C)C)NC(=O)[C@H]1O[C@@H]1C(=O)NCc1cccc(C#N)c1 [NCGC00488909-01]	9.85 µM

tested on: WEEV; assay: microbe, parasite or virus in culture; format: cell-based; conditions: Western equine encephalitis virus, HeLa, read-out: WEEV EC50

Compound	EC50
CCC(C)C(NC(=O)C1OC1C(=O)NC(CC(C)C)C(=O)NCCC(C)C)C(=O)N1CCCC1C(=O)OCc1ccccc1 (stereo not shown) [NCGC00484087-01]	5.74 µM
CC(C)CCNC(=O)[C@H](CC(C)C)NC(=O)[C@H]1O[C@@H]1C(=O)NCc1ccc(C#N)cc1 [NCGC00488904-01]	5.15 µM
CC(C)CCNC(=O)[C@H](CC(C)C)NC(=O)[C@H]1O[C@@H]1C(=O)NCCCCO [NCGC00488906-01]	20.4 µM
CC(C)CCNC(=O)[C@H](CC(C)C)NC(=O)[C@H]1O[C@@H]1C(=O)NCc1cccc(C#N)c1 [NCGC00488909-01]	5.02 µM

tested on: EEEV; assay: microbe, parasite or virus in culture; format: cell-based; conditions: Eastern equine encephalitis virus, A549, read-out: EEEV EC50

Compound	EC50
CCC(C)C(NC(=O)C1OC1C(=O)NC(CC(C)C)C(=O)NCCC(C)C)C(=O)N1CCCC1C(=O)OCc1ccccc1 (stereo not shown) [NCGC00484087-01]	13.2 µM
CC(C)CCNC(=O)[C@H](CC(C)C)NC(=O)[C@H]1O[C@@H]1C(=O)NCc1ccc(C#N)cc1 [NCGC00488904-01]	16.2 µM
CC(C)CCNC(=O)[C@H](CC(C)C)NC(=O)[C@H]1O[C@@H]1C(=O)NCCCCO [NCGC00488906-01]	> 100 µM
CC(C)CCNC(=O)[C@H](CC(C)C)NC(=O)[C@H]1O[C@@H]1C(=O)NCc1cccc(C#N)c1 [NCGC00488909-01]	43 µM

tested on: not given; assay: not given; conditions: rat, microsomes

Compound	Rat_SD/Microsomes t1/2
CCC(C)C(NC(=O)C1OC1C(=O)NC(CC(C)C)C(=O)NCCC(C)C)C(=O)N1CCCC1C(=O)OCc1ccccc1 (stereo not shown) [NCGC00484087-01]	1.5 m
CC(C)CCNC(=O)[C@H](CC(C)C)NC(=O)[C@H]1O[C@@H]1C(=O)NCCCCO [NCGC00488906-01]	>30 m

tested on: not given; assay: not given; conditions: not given

Compound	PAMPA
CCC(C)C(NC(=O)C1OC1C(=O)NC(CC(C)C)C(=O)NCCC(C)C)C(=O)N1CCCC1C(=O)OCc1ccccc1 (stereo not shown) [NCGC00484087-01]	1089.1 ×10⁻⁶ cm/s

tested on: not listed separately; assay: in vitro; conditions: human

Compound	CC50
CCC(C)C(NC(=O)C1OC1C(=O)NC(CC(C)C)C(=O)NCCC(C)C)C(=O)N1CCCC1C(=O)OCc1ccccc1 (stereo not shown) [NCGC00484087-01]	> 50 µM
CC(C)CCNC(=O)[C@H](CC(C)C)NC(=O)[C@H]1O[C@@H]1C(=O)NCc1ccc(C#N)cc1 [NCGC00488904-01]	> 50 µM
CC(C)CCNC(=O)[C@H](CC(C)C)NC(=O)[C@H]1O[C@@H]1C(=O)NCCCCO [NCGC00488906-01]	> 50 µM
CC(C)CCNC(=O)[C@H](CC(C)C)NC(=O)[C@H]1O[C@@H]1C(=O)NCc1cccc(C#N)c1 [NCGC00488909-01]	> 50 µM

tested on: not listed separately; assay: in vitro; conditions: African green monkey

Compound	CC50
CCC(C)C(NC(=O)C1OC1C(=O)NC(CC(C)C)C(=O)NCCC(C)C)C(=O)N1CCCC1C(=O)OCc1ccccc1 (stereo not shown) [NCGC00484087-01]	> 100 µM
CC(C)CCNC(=O)[C@H](CC(C)C)NC(=O)[C@H]1O[C@@H]1C(=O)NCc1ccc(C#N)cc1 [NCGC00488904-01]	> 100 µM
CC(C)CCNC(=O)[C@H](CC(C)C)NC(=O)[C@H]1O[C@@H]1C(=O)NCCCCO [NCGC00488906-01]	> 100 µM
CC(C)CCNC(=O)[C@H](CC(C)C)NC(=O)[C@H]1O[C@@H]1C(=O)NCc1cccc(C#N)c1 [NCGC00488909-01]	> 100 µM

same assay, conditions: human

Compound	CC50
CCC(C)C(NC(=O)C1OC1C(=O)NC(CC(C)C)C(=O)NCCC(C)C)C(=O)N1CCCC1C(=O)OCc1ccccc1 (stereo not shown) [NCGC00484087-01]	> 50 µM
CC(C)CCNC(=O)[C@H](CC(C)C)NC(=O)[C@H]1O[C@@H]1C(=O)NCc1ccc(C#N)cc1 [NCGC00488904-01]	> 50 µM
CC(C)CCNC(=O)[C@H](CC(C)C)NC(=O)[C@H]1O[C@@H]1C(=O)NCCCCO [NCGC00488906-01]	> 50 µM
CC(C)CCNC(=O)[C@H](CC(C)C)NC(=O)[C@H]1O[C@@H]1C(=O)NCc1cccc(C#N)c1 [NCGC00488909-01]	> 50 µM

tested on: not listed separately; assay: in vitro; conditions: SD, rat, microsomes

Compound	half-life
CCC(C)C(NC(=O)C1OC1C(=O)NC(CC(C)C)C(=O)NCCC(C)C)C(=O)N1CCCC1C(=O)OCc1ccccc1 (stereo not shown) [NCGC00484087-01]	1.5 min
CC(C)CCNC(=O)[C@H](CC(C)C)NC(=O)[C@H]1O[C@@H]1C(=O)NCCCCO [NCGC00488906-01]	> 30 min

tested on: not listed separately; assay: in vitro; conditions: PAMPA

Compound	Papp
CCC(C)C(NC(=O)C1OC1C(=O)NC(CC(C)C)C(=O)NCCC(C)C)C(=O)N1CCCC1C(=O)OCc1ccccc1 (stereo not shown) [NCGC00484087-01]	1090 ×10⁻⁶ cm/s

tested on: not listed separately; assay: physchem; conditions: not given

Compound	solubility
CCC(C)C(NC(=O)C1OC1C(=O)NC(CC(C)C)C(=O)NCCC(C)C)C(=O)N1CCCC1C(=O)OCc1ccccc1 (stereo not shown) [NCGC00484087-01]	4.1 µg/mL (≈ 6.67 µM)
CC(C)CCNC(=O)[C@H](CC(C)C)NC(=O)[C@H]1O[C@@H]1C(=O)NCCCCO [NCGC00488906-01]	15.9 µg/mL (≈ 41.2 µM)
